From ChEMBL document CHEMBL5724696, “Autophagy assay results for EUbOPEN Chemogenomics Library” (2024)

Experiments:
Type in all cases: functional, Homo sapiens
[1] = tested on: U2OS; experiment: (§1) Here: values are normalized to the negative (DMSO; defined as 0% autophagy induction) and positive (250nM Torin1; mTOR inhibitor; defined as maximal inducer of autophagy = 100%) control compounds and represented as % of autophagy induction. […] The impact of autophagy induction on cells is complex and depends on the affected target. As such, the magnitude of a phenotype may not be equally mirrored in the %-value of autophagy induction and vice versa. The dynamics of the induction may indicate the mode of activation: e.g. activation via phosphorylation or a signaling cascade may occur fast, while activation via transcription factors may take considerably longer. […] Of note, treatment concentrations may be sub-optimal for specific compounds, leading to false negative annotations.; settings: Culturing Media DMEM, 1 % Penicillin/Streptomycin, 10% Fetal bovin serum Add-On: No, Screening Media Control DMEM, Screening Media Samples DMEM
[2] = tested on: TERT-RPE1; experiment: as §1; settings: Culturing Media DMEM/F12 (1:1), 1 % Penicillin/Streptomycin, 10% Fetal bovin serum Add-On: No, Screening Media Control DMEM/F12 (1:1), Screening Media Samples DMEM/F12 (1:1)
[3] = tested on: U2OS; experiment: as §1; settings: Culturing Media DMEM, 1 % Penicillin/Streptomycin, 10% Fetal bovin serum Add-On: No, Screening Media Control DMEM, Screening Media Samples DMEM; remark: listed apart in the source
[4] = Compound Concentration 0.5 uM, Timepoint 12 hours
[5] = Compound Concentration 0.5 uM, Timepoint 24 hours
[6] = Compound Concentration 0.5 uM, Timepoint 36 hours
[7] = Compound Concentration 0.5 uM, Timepoint 60 hours
[8] = Compound Concentration 2 uM, Timepoint 12 hours
[9] = Compound Concentration 2 uM, Timepoint 24 hours
[10] = Compound Concentration 2 uM, Timepoint 36 hours
[11] = Compound Concentration 2 uM, Timepoint 60 hours
[12] = Compound Concentration 10 uM, Timepoint 12 hours
[13] = Compound Concentration 10 uM, Timepoint 24 hours
[14] = Compound Concentration 10 uM, Timepoint 36 hours
[15] = Compound Concentration 10 uM, Timepoint 60 hours

| Structure (SMILES) | autophagy induction [1, 4] [%] | autophagy induction [1, 5] [%] | autophagy induction [1, 6] [%] | autophagy induction [1, 7] [%] | autophagy induction [1, 8] [%] | autophagy induction [1, 9] [%] | autophagy induction [1, 10] [%] | autophagy induction [1, 11] [%] | autophagy induction [1, 12] [%] | autophagy induction [1, 13] [%] | autophagy induction [1, 14] [%] | autophagy induction [1, 15] [%] | autophagy induction [2, 4] [%] | autophagy induction [2, 5] [%] | autophagy induction [2, 6] [%] | autophagy induction [2, 7] [%] | autophagy induction [2, 8] [%] | autophagy induction [2, 9] [%] | autophagy induction [2, 10] [%] | autophagy induction [2, 11] [%] | further results |
| --- | --- | --- | --- | --- | --- | --- | --- | --- | --- | --- | --- | --- | --- | --- | --- | --- | --- | --- | --- | --- | --- |
| O=C(O)C1CN(Cc2ccc(-c3nc4cc(Cc5ccccc5F)ccc4s3)c(F)c2)C1 | 3.797 | -4.944 | -8.688 | -8.1655 | 22.0588 | 16.1887 | 14.8366 | 4.458 | 26.4516 | 18.766 | 13.3531 | 2.726 | -8.917 | -10.8072 | -9.562 | -5.859 | -8.468 | -9.963 | -11.3812 | -13.3438 | autophagy induction [2, 12]: -4.678%; autophagy induction [2, 13]: -6.178%; autophagy induction [2, 14]: -7.73%; autophagy induction [2, 15]: -6.2118%; autophagy induction [3, 4]: 4.055%; autophagy induction [3, 5]: -0.4566%; autophagy induction [3, 6]: -1.32%; autophagy induction [3, 7]: -0.5858%; autophagy induction [3, 8]: 1.76%; autophagy induction [3, 9]: 0.3602%; autophagy induction [3, 10]: -0.6521%; autophagy induction [3, 11]: -0.7655%; autophagy induction [3, 12]: -1.302%; autophagy induction [3, 13]: -1.781%; autophagy induction [3, 14]: -1.367%; autophagy induction [3, 15]: -0.5842% |
| Cc1nnn(-c2ccc(-c3ccc(C4(C(=O)O)CC4)cc3)cc2)c1NC(=O)O[C@H](C)c1ccccc1 | -1.478 | 0.2424 | -2.356 | -5.696 | 5.693 | 3.627 | 6.347 | 1.322 | 9.873 | 11.541 | 8.0313 | 1.41 | -8.995 | -11.6561 | -16.9316 | -15.4997 | -6.061 | -9.8231 | -13.2189 | 6.862 | autophagy induction [2, 12]: 6.725%; autophagy induction [2, 13]: 7.557%; autophagy induction [2, 14]: 8.9017%; autophagy induction [2, 15]: 33.5372%; autophagy induction [3, 4]: 2.665%; autophagy induction [3, 5]: 0.2559%; autophagy induction [3, 6]: -0.1373%; autophagy induction [3, 7]: 0.1457%; autophagy induction [3, 8]: 3.283%; autophagy induction [3, 9]: 0.4892%; autophagy induction [3, 10]: -0.1911%; autophagy induction [3, 11]: -0.4752%; autophagy induction [3, 12]: 8.52%; autophagy induction [3, 13]: 5.722%; autophagy induction [3, 14]: 2.388%; autophagy induction [3, 15]: 0.4676% |
| CNc1nc(NCc2ccc(NS(C)(=O)=O)cc2Cl)cc(-c2ccccn2)n1 | 14.6542 | 1.484 | 3.538 | 8.159 | 23.6541 | 10.7985 | 11.9727 | 23.1222 | 27.3974 | 31.2749 | 36.9575 | 46.6456 | -1.3719 | -4.63 | -8.2685 | -4.377 | 1.95 | -3.372 | -5.053 | 1.232 | autophagy induction [2, 12]: 14.7912%; autophagy induction [2, 13]: 21.0269%; autophagy induction [2, 14]: 30.7963%; autophagy induction [2, 15]: 56.217%; autophagy induction [3, 4]: -4.8332%; autophagy induction [3, 5]: -1.906%; autophagy induction [3, 6]: -1.0253%; autophagy induction [3, 7]: -0.2766%; autophagy induction [3, 8]: -0.6465%; autophagy induction [3, 9]: 0.2341%; autophagy induction [3, 10]: -0.0484%; autophagy induction [3, 11]: 0.9042%; autophagy induction [3, 12]: -8.81%; autophagy induction [3, 13]: -3.343%; autophagy induction [3, 14]: -3.38%; autophagy induction [3, 15]: -6.97% |
